These are literature values, as cited in US10080720B2, “Pharmaceutical composition containing docetaxel” (GAINIA (SHANGHAI) PATENT TECHNOLOGY LTD., priority 2014, dated 2018).

The structures appear in SMILES notation.

As to `CC(=O)O[C@@]12CO[C@@H]1C[C@H](O)[C@@]1(C)C(=O)[C@H](O)C3=C(C)[C@@H](OC(=O)[C@H](O)[C@@H](NC(=O)OC(C)(C)C)c4ccccc4)C[C@@](O)([C@@H](OC(=O)c4ccccc4)[C@H]21)C3(C)C` [docetaxel], the “solubility of docetaxel in water” value was 6 to 7 µg/mL.
